{"source": "patent US5916774A", "about": "“D-aminoacylase” (Daicel Chemical Industries, Ltd., priority 1997, dated 1999)", "key": {"[1]": {"tested_on": "D-aminoacylase derived from Amycolatopsis orientalis IFO 12806", "experiment": "Substrate specificity of D-aminoacylase", "format": "biochemical", "conditions": "20 mM substrate, 3 h; for Action of the enzyme on the substrate: pH 7.5, 30° C.; for Specific activity (%): N-acetyl-D-methionine taken as 100%, 50 mM Tris-HCl pH 7.5, 30° C.", "experimental": "The enzymatic reaction was carried out in a total volume of 1.0 ml of a reaction system containing 20 mM N-acetyl-D-methionine (Sigma), 50 mM Tris-HCl buffer (pH 7.5), 1 mM CoCl2, and 100 μl of the enzyme solution at 30° C. for 60 min. The reaction was terminated by adding 0.5 ml of a TCA reaction terminating solution according to Tsai et al. (containing 0.11M trichloroacetic acid, 0.22M sodium acetate, and 0.33M acetic acid).\n(§1) The enzyme activity was assayed according to TNBS method [Tokuyama, S., Hatano, K. and Takahashi, T., Biosci. Biotech. Biochem. 58, pp24 (1994)]. That is, a sample solution containing amino acid was added to 0.5 ml of the solution (C) (0.1M Na2 B4 O7), and brought up to a volume of 1.0 ml. To this mixture was added […] of 0.11M TNBS solution, and the resulting mixture was quickly mixed. Five min thereafter, absorption at 420 nm was measured.\nSubstrate specificity of this enzyme was compared to, taking substrate specificity for N-acetyl-D-methionine as 100%, N-acetyl-D-valine, N-acetyl-D-phenylalanine, N-acetyl-D-leucine, N-acetyl-D-tryptophan, N-acetyl-D-asparagine, N-acetyl-L-methionine, N-acetyl-D-leucine, and N-acetyl-L-valine. The enzyme activity was assayed in 50 mM Tris-HCl buffer (pH 7.5) containing 100 μl of the enzyme solution and 20 mM of each substrate (total volume of 1.0 ml) at 30° C. for 3 h."}, "[2]": {"tested_on": "Amycolatopsis orientalis IFO 12806", "experiment": "Induction of D-aminoacylase production by inducers in culture", "format": "cell-based", "conditions": "for Specific activity / Total activity / Activity: crude enzyme solution of cells cultured with 0.1% inducer in ISP-2 medium, 30° C., 72 h; for Activity: 20 mM N-acetyl-D-methionine, pH 7.5, 10 min", "experimental": "This microbial strain was cultured in ISP-2 liquid medium as used in Example 1 supplemented with or without N-acetyl-DL-methionine or DL-valine (Kanto Kagaku) (0.1% each) as the enzyme inducer with shaking at 160 rpm at 30° C. for 72 h.\nAfter the incubation, the culture was centrifuged at 8000 rpm (7000×g) for 20 min with a Hitachi Koki refrigerated centrifuge to collect microbial cells. The cells were washed with 50 mM Tris-HCl buffer (pH 7.5) and then centrifuged again with the same centrifuge to harvest the cells to be used in the following processes. The cells were stored at -20° C.\nThe stored cells were suspended in 20 ml of 50 mM Tris-HCl (pH 7.5), ultrasonicated at 190 W for 10 min, and centrifuged with a Hitachi Koki refrigerated centrifuge at 14,000 rpm (20,000×g) for 20 min. The supernatant thus obtained was used as the crude enzyme solution.\nThe enzymatic reaction was performed in a total volume of 1.0 ml of a reaction system containing 20 mM N-acetyl-D-methionine, 50 mM Tris-HCl buffer (pH 7.5), 1 mM CoCl2, and 100 μl of the enzyme solution at 30° C. for 10 min. The reaction was terminated by adding a TCA reaction terminating solution."}, "[3]": {"tested_on": "D-aminoacylase derived from Amycolatopsis orientalis IFO 12806", "experiment": "Influences of various metallic salts and reagents on D-aminoacylase activity", "format": "biochemical", "experimental": "as §1\nIn Table 5, the term \"PCMB\" means p-chloromercuribenzoic acid."}, "[4]": {"conditions": "metallic salt 1 mM, no addition = 100"}, "[5]": {"conditions": "metallic salt 1 mM, pH 7.5, 30° C., 60 min, no addition 0.25"}, "[6]": {"conditions": "metallic salt 10 mM, no addition = 100"}, "[7]": {"conditions": "metallic salt 10 mM, pH 7.5, 30° C., 60 min, no addition 0.25"}}, "note": "Like-named read-outs stand apart in the source and are kept apart here."}
{"smiles": "CC(=O)N[C@H](Cc1ccccc1)C(=O)O", "note": "[N-acetyl-D-phenylalanine]", "values": [{"measurement": "Action of the enzyme on the substrate", "setting": "[1]", "value": "acted somewhat"}, {"measurement": "Specific activity (%)", "setting": "[1]", "value": 36, "unit": "%"}]}
{"smiles": "CC(=O)N[C@@H](C(=O)O)C(C)C", "note": "[N-acetyl-D-valine]", "values": [{"measurement": "Specific activity (%)", "setting": "[1]", "value": 33, "unit": "%"}]}
{"smiles": "CC(=O)N[C@@H](CC(C)C)C(=O)O", "note": "[N-acetyl-L-leucine]", "values": [{"measurement": "Action of the enzyme on the substrate", "setting": "[1]", "value": "did not act"}, {"measurement": "Specific activity (%)", "setting": "[1]", "value": 0, "unit": "%"}]}
{"smiles": "CC(C)C(N)C(=O)O", "note": "(racemic) [DL-valine]", "values": [{"measurement": "Induction of D-aminoacylase", "setting": "[2]; DL-valine compared with N-acetyl-DL-methionine as inducer", "value": "induced more strongly"}, {"measurement": "Specific activity", "setting": "[2]", "value": 144.0, "unit": "mU/mg"}, {"measurement": "Total activity", "setting": "[2]", "value": 36.0, "unit": "U"}, {"measurement": "Activity", "setting": "[2]", "value": 3.9, "unit": "U/ml"}]}
{"smiles": "CC(=O)N[C@H](C)C(=O)O", "note": "[N-acetyl-D-alanine]", "values": [{"measurement": "Action of the enzyme on the substrate", "setting": "[1]", "value": "acted somewhat"}, {"measurement": "Specific activity (%)", "setting": "[1]", "value": 16, "unit": "%"}]}
{"smiles": "CSCC[C@@H](NC(C)=O)C(=O)O", "note": "[N-acetyl-D-methionine]", "values": [{"measurement": "Action of the enzyme on the substrate", "setting": "[1]", "value": "acted well"}, {"measurement": "Specific activity (%)", "setting": "[1]", "value": 100, "unit": "%"}]}
{"smiles": "CC(=O)N[C@H](CC(N)=O)C(=O)O", "note": "[N-acetyl-D-asparagine]", "values": [{"measurement": "Action of the enzyme on the substrate", "setting": "[1]", "value": "acted somewhat"}, {"measurement": "Specific activity (%)", "setting": "[1]", "value": 19, "unit": "%"}]}
{"smiles": "CSCCC(NC(C)=O)C(=O)O", "note": "(racemic) [N-acetyl-DL-methionine]", "values": [{"measurement": "Specific activity", "setting": "[2]", "value": 36.0, "unit": "mU/mg"}, {"measurement": "Total activity", "setting": "[2]", "value": 5.1, "unit": "U"}, {"measurement": "Activity", "setting": "[2]", "value": 1.6, "unit": "U/ml"}]}
{"smiles": "[Cl-].[Cl-].[Co+2]", "note": "[Co^2+ (CoCl2), CoCl2]", "values": [{"measurement": "Effect on enzyme activity", "setting": "[3]; 1 mM", "value": "significantly promoted"}, {"measurement": "Effect on enzyme activity", "setting": "[3]; 10 mM", "value": "did not do so"}, {"measurement": "Specific activity (%), concentration 1 mM", "setting": "[3]; [4]", "value": 208, "unit": "%"}, {"measurement": "Methionine produced, concentration 1 mM", "setting": "[3]; [5]", "value": 0.52, "unit": "mM"}, {"measurement": "Specific activity (%), concentration 10 mM", "setting": "[3]; [6]", "value": 108, "unit": "%"}, {"measurement": "Methionine produced, concentration 10 mM", "setting": "[3]; [7]", "value": 0.27, "unit": "mM"}]}
{"smiles": "[Cl][Fe][Cl]", "note": "[F^e2+ (FeCl2), FeCl2]", "values": [{"measurement": "Specific activity (%), concentration 1 mM", "setting": "[3]; [4]", "value": 52, "unit": "%"}, {"measurement": "Methionine produced, concentration 1 mM", "setting": "[3]; [5]", "value": 0.13, "unit": "mM"}, {"measurement": "Specific activity (%), concentration 10 mM", "setting": "[3]; [6]", "value": 0, "unit": "%"}, {"measurement": "Methionine produced, concentration 10 mM", "setting": "[3]; [7]", "value": 0, "unit": "mM"}]}
{"smiles": "[Cl-].[Na+]", "note": "[Na^+ (NaCl), NaCl]", "values": [{"measurement": "Specific activity (%), concentration 1 mM", "setting": "[3]", "value": 84, "unit": "%"}, {"measurement": "Specific activity (%), concentration 10 mM", "setting": "[3]", "value": 152, "unit": "%"}, {"measurement": "Methionine produced, concentration 1 mM", "setting": "[3]; pH 7.5", "value": 0.21, "unit": "mM"}, {"measurement": "Methionine produced, concentration 10 mM", "setting": "[3]; pH 7.5", "value": 0.36, "unit": "mM"}]}
{"smiles": "[Ca+2].[Cl-].[Cl-]", "note": "[Ca^2+ (CaCl2), CaCl2]", "values": [{"measurement": "Effect on enzyme activity", "setting": "[3]; 1 mM", "value": "significantly promoted"}, {"measurement": "Effect on enzyme activity", "setting": "[3]; 10 mM", "value": "did not inhibit"}, {"measurement": "Specific activity (%), concentration 1 mM", "setting": "[3]; [4]", "value": 180, "unit": "%"}, {"measurement": "Methionine produced, concentration 1 mM", "setting": "[3]; [5]", "value": 0.45, "unit": "mM"}, {"measurement": "Specific activity (%), concentration 10 mM", "setting": "[3]; [6]", "value": 208, "unit": "%"}, {"measurement": "Methionine produced, concentration 10 mM", "setting": "[3]; [7]", "value": 0.52, "unit": "mM"}]}
{"smiles": "CC(=O)N[C@H](CC(C)C)C(=O)O", "note": "[N-acetyl-D-leucine]", "values": [{"measurement": "Action of the enzyme on the substrate", "setting": "[1]", "value": "acted well"}, {"measurement": "Specific activity (%)", "setting": "[1]", "value": 78, "unit": "%"}]}
{"smiles": "CC(=O)N[C@H](Cc1c[nH]c2ccccc12)C(=O)O", "note": "[N-acetyl-D-tryptophan]", "values": [{"measurement": "Action of the enzyme on the substrate", "setting": "[1]", "value": "acted somewhat"}, {"measurement": "Specific activity (%)", "setting": "[1]", "value": 54, "unit": "%"}]}
{"smiles": "CSCC[C@H](NC(C)=O)C(=O)O", "note": "[N-acetyl-L-methionine]", "values": [{"measurement": "Action of the enzyme on the substrate", "setting": "[1]", "value": "did not act"}, {"measurement": "Specific activity (%)", "setting": "[1]", "value": 0, "unit": "%"}]}
{"smiles": "CC(=O)N[C@H](C(=O)O)C(C)C", "note": "[N-acetyl-L-valine]", "values": [{"measurement": "Action of the enzyme on the substrate", "setting": "[1]", "value": "did not act"}, {"measurement": "Specific activity (%)", "setting": "[1]", "value": 0, "unit": "%"}]}
